Measured values published in patent US20240139211A1, “METHODS AND COMPOSITIONS FOR TREATING AMYOTROPHIC LATERAL SCLEROSIS” (Amylyx Pharmaceuticals, Inc., priority 2022, published 2024).
Where two headings read alike, the source gives them in different places.

Tests used:
[1] = target: OATP1B1 (Homo sapiens, UniProt Q9Y6L6); assay: Substrate of OATP1B1, uptake in HEK293 cells
Description: (§1) Vector-transfected HEK cells were used as a control.

[2] = target: BSEP (Homo sapiens, UniProt O95342); assay: Inhibitor of BSEP; conditions: for Inhibition of BSEP / Inhibitor of BSEP: two concentrations per test article
[3] = target: T1, OAT1 (Homo sapiens, UniProt Q4U2R8); assay: Inhibitor of OAT1, probe substrate uptake; conditions: for Inhibition of OAT1 / Inhibitor of OAT1: two concentrations per test article; for potency estimated from few doses: read-out: Estimated IC50, OAT1
T1 sequence (Q4U2R8 1-563): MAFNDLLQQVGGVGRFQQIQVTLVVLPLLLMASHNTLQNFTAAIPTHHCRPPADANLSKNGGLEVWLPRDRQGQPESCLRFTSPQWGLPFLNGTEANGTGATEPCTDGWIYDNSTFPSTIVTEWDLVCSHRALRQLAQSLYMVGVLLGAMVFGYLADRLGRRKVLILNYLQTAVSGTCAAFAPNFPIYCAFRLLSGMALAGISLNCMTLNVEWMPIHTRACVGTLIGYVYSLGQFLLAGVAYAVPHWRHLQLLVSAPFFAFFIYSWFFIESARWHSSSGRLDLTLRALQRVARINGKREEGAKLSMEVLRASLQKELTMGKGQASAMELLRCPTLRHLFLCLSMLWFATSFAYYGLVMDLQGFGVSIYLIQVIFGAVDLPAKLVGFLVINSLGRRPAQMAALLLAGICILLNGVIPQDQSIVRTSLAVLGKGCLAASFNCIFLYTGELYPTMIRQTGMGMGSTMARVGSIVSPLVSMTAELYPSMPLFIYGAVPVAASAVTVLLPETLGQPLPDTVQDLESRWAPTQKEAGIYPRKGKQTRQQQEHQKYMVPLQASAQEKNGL

[4] = target: T2, OAT3 (Homo sapiens, UniProt Q8TCC7); assay: Inhibitor of OAT3, probe substrate uptake; conditions: for potency estimated from few doses: read-out: Estimated IC50, OAT3; for Inhibition of OAT3 / Inhibitor of OAT3: two concentrations per test article
T2 sequence (Q8TCC7 1-542): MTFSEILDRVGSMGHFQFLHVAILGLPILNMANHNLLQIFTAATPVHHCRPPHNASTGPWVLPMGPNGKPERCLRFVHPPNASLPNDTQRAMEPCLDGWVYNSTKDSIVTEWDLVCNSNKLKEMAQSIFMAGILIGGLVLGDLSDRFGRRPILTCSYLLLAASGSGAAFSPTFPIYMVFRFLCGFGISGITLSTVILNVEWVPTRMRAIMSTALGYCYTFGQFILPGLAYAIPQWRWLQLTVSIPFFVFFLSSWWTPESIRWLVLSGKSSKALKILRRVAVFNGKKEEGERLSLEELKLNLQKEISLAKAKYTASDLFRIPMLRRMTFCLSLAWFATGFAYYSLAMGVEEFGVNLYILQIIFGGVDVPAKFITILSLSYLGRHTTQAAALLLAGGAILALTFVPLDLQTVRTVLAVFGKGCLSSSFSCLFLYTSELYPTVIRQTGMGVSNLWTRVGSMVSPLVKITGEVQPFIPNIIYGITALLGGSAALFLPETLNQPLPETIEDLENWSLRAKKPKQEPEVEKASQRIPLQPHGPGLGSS

[5] = target: OATP1B3 (Homo sapiens, UniProt Q9NPD5); assay: Inhibitor of OATP1B3, probe substrate uptake; conditions: for potency estimated from few doses: read-out: Estimated IC50, OATP1B3; for Inhibition of OATP1B3 / Inhibitor of OATP1B3: two concentrations per test article
[6] = test system: human hepatocytes; assay: Stability of test articles in hepatocyte cultures; conditions: two concentrations
[7] = target: T2, OAT3; assay: Substrate of OAT3, uptake in HEK293 cells
Description: as §1

[8] = target: T3, OCT1 (Homo sapiens, UniProt O15245); assay: Substrate of OCT1, uptake in HEK293 cells
T3 sequence (O15245 1-554): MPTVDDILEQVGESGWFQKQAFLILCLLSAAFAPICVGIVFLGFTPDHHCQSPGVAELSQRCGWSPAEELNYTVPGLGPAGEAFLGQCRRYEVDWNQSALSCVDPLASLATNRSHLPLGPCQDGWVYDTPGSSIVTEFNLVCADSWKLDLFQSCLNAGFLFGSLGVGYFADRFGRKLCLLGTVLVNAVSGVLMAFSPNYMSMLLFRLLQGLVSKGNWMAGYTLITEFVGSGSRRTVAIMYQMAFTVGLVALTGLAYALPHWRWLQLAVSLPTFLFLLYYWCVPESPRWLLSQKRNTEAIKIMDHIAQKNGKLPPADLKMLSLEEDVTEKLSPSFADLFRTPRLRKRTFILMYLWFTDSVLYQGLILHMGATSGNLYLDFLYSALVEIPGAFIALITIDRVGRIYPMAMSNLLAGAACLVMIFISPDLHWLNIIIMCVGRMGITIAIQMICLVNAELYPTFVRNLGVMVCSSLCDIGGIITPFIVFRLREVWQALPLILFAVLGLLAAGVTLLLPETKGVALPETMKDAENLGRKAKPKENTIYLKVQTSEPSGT
Description: as §1

[9] = target: T4, MATE1 (Homo sapiens, UniProt Q96FL8); assay: Substrate of MATE1, uptake in HEK293 cells
T4 sequence (Q96FL8 1-570): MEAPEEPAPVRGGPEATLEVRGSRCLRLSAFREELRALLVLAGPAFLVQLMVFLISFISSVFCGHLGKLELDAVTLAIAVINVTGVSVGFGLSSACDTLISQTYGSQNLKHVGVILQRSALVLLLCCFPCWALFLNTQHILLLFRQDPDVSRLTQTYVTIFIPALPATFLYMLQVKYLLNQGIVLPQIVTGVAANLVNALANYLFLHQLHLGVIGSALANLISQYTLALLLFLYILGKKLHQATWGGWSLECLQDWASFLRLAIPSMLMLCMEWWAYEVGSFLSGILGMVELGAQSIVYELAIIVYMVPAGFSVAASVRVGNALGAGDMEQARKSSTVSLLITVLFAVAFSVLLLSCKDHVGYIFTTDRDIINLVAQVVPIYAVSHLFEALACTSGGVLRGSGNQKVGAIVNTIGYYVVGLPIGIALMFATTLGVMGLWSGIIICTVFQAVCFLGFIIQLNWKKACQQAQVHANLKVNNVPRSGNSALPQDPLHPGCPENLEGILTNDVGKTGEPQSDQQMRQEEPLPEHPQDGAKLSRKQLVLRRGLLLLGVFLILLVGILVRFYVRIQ
Description: as §1

[10] = estimated from two concentrations

Sequence of OATP1B3 (Q9NPD5 whole entry): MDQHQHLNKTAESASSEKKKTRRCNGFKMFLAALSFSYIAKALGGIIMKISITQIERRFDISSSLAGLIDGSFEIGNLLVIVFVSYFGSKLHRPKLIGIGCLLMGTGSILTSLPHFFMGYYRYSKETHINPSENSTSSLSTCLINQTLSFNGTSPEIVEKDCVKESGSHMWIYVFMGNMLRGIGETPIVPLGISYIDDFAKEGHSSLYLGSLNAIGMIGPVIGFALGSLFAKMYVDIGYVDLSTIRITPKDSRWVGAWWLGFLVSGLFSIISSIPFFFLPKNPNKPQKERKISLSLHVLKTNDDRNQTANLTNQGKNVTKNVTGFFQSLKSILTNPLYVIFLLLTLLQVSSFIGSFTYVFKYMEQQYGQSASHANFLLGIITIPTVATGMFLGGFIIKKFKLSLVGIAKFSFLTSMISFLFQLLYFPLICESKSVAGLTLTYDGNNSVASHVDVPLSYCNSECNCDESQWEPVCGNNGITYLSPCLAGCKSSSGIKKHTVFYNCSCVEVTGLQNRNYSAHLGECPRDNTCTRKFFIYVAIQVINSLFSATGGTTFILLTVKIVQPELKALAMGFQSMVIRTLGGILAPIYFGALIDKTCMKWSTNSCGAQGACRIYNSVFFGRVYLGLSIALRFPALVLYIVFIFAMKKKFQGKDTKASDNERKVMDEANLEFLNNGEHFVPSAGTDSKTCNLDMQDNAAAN
Sequence of OATP1B1 (Q9Y6L6 whole entry): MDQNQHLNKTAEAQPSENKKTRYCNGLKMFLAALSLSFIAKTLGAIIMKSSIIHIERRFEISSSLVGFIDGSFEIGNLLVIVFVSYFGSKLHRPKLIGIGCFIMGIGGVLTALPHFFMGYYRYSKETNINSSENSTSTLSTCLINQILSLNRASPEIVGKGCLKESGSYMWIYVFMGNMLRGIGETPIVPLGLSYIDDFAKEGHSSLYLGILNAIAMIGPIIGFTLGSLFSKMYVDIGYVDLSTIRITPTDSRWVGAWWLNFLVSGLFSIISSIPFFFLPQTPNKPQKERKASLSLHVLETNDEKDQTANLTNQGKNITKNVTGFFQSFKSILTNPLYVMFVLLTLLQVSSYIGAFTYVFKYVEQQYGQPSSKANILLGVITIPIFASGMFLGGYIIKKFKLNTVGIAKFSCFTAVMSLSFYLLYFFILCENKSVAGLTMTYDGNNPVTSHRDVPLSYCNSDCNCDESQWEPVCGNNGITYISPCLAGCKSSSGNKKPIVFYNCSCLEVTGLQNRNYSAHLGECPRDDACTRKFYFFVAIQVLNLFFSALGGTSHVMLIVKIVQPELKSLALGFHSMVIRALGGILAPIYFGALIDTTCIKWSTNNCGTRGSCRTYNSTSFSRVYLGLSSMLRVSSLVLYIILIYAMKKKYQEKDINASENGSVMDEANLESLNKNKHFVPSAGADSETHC
Sequence of BSEP (O95342 whole entry): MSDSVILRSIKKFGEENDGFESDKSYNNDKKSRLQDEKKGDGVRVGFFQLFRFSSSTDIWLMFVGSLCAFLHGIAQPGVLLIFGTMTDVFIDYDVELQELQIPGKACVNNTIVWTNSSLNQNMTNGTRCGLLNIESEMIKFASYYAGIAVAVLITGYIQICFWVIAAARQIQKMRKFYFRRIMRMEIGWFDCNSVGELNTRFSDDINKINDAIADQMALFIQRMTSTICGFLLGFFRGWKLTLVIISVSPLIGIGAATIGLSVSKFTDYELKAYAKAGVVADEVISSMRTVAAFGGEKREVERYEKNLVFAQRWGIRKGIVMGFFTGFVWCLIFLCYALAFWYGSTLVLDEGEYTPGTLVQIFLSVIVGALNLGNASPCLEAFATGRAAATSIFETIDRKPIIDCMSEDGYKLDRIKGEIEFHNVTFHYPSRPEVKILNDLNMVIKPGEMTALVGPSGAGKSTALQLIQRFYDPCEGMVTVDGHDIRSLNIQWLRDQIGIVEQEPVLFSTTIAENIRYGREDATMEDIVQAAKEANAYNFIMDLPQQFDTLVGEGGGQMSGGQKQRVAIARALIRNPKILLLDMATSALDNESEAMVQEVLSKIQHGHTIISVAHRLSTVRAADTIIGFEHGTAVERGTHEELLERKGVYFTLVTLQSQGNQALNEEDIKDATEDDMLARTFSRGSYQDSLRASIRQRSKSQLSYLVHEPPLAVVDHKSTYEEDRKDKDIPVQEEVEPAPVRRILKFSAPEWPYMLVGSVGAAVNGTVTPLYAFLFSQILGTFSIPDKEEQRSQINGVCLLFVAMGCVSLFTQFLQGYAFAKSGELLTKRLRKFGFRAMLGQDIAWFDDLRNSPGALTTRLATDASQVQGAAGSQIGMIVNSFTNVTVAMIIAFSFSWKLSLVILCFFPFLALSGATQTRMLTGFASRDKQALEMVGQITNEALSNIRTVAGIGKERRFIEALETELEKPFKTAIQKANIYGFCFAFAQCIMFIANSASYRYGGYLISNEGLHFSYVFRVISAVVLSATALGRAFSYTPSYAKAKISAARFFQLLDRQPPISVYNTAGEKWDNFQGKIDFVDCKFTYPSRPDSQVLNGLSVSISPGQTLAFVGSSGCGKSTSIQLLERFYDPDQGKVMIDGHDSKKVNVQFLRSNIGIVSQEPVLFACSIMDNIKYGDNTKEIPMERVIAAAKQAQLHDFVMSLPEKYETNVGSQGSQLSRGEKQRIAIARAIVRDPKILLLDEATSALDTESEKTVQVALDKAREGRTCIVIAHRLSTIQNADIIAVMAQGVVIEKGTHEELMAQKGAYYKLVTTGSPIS

Compound	Inhibition of BSEP [2]	Inhibitor of BSEP [2]	Inhibition of OAT1 [3]	Inhibitor of OAT1 [3]	potency estimated from few doses [4, 10]	Inhibition of OAT3 [4]	Inhibitor of OAT3 [4]	potency estimated from few doses [5, 10]	Inhibition of OATP1B3 [5]	Inhibitor of OATP1B3 [5]	% of time zero remaining in hepatocyte cultures ([6]; 1 hour)	% of time zero remaining in hepatocyte cultures ([6]; 4 hours)	% of time zero remaining in hepatocyte cultures ([6]; 24 hours)	potency estimated from few doses [3, 10]	Substrate of OAT3 ([7]; test article 1 and 10 μM)	Substrate of OCT1 ([8]; 1 and 10 μM)	Substrate of OCT1 ([8]; test article 1 and 10 μM)	Substrate of OATP1B1 ([1]; 1 and 10 μM)	Substrate of OATP1B1 ([1]; test article 1 and 10 μM)	Substrate of MATE1 ([9]; 1 and 10 μM)	further results
C[C@H](CCC(=O)NCC(=O)O)[C@H]1CC[C@H]2[C@@H]3[C@@H](O)C[C@@H]4C[C@H](O)CC[C@]4(C)[C@H]3CC[C@]12C [Glycoursodeoxycholic acid, glycoursodeoxycholic acid]	inhibited	Yes	did not inhibit	No	< 100 µM	inhibited	Yes	< 100 µM	inhibited	Yes	≤ 88.8%	≤ 75.4%	≤ 34.7%								Fold uptake by OATP1B1 over vector control ([1]; human, 5 min, 10 μM): 7.56 fold; Fold uptake by OATP1B1 over vector control with known inhibitors ([1]; human, 5 min, 10 μM): 1.80 fold; potency estimated from few doses ([2]; human): < 10 µM; Uptake activity remaining, OAT3 ([4]; 100 μM): 24.5%; Uptake activity remaining, OATP1B3 ([5]; 100 μM): 10.6%
O=C(O)CCCc1ccccc1 [PB, sodium phenylbutyrate]	did not inhibit	No	inhibited	Yes	< 25 µM	inhibited	Yes		did not inhibit	No	≤ 84.0%	≤ 60.7%	0%	< 25 µM							Uptake activity remaining, OAT1 ([3]; 25 μM): 21.1%; Uptake activity remaining, OAT3 ([4]; 25 μM): 44.3%
O=C(O)Cc1ccccc1 [Phenylacetic acid, phenylacetic acid]	inhibited	Yes	inhibited	Yes		did not inhibit	No		did not inhibit	No		≤ 75.9%	≤ 2.31%	< 750 µM	No	not a substrate	No	not a substrate	No	not a substrate	Substrate of OAT3 ([7]; 1 and 10 μM): not a substrate; Substrate of MATE1 ([9]; test article 1 and 10 μM): No^a; potency estimated from few doses ([2]; human): < 7500 µM; Uptake activity remaining, OAT1 ([3]; 750 μM): 35.2%
tauroursodeoxycholic acid [TUDCA]	inhibited	Yes	did not inhibit	No	> 50 µM	inhibited	Yes	< 50 µM	inhibited	Yes	≤ 79.9%	≤ 75.9%	≤ 23.5%		Yes	not a substrate	No	not a substrate	No	not a substrate	Uptake by OAT3 ([7]; 1 and 10 μM): ≥ 9.27 pmol/minute/mg protein; Substrate of MATE1 ([9]; test article 1 and 10 μM): No; potency estimated from few doses ([2]; read-out: Estimated IC50, BSEP, estimated from two concentrations): < 5 µM; potency estimated from few doses ([4]; estimated from two doses): > 50 µM; Uptake activity remaining, OATP1B3 ([5]; 50 μM): roughly 18%; potency estimated from few doses ([5]; estimated from two doses): < 50 µM
ursodeoxycholic acid			inhibited	Yes	< 50 µM	inhibited	Yes	< 50 µM	inhibited	Yes	≤ 93.1%	≤ 61.0%	≤ 2.35%	< 500 µM	No	not a substrate	No	not a substrate	No	not a substrate	Substrate of OAT3 ([7]; 1 and 10 μM): not a substrate; Substrate of MATE1 ([9]; test article 1 and 10 μM): No; potency estimated from few doses ([3]; estimated from two doses): < 500 µM; Uptake activity remaining, OAT3 ([4]; 50 μM): 27.6%; potency estimated from few doses ([4]; estimated from two doses): < 50 µM; Uptake activity remaining, OATP1B3 ([5]; 50 μM): 545.1%; Uptake activity remaining, OATP1B3 ([5]; 500 μM): no uptake activity remaining; potency estimated from few doses ([5]; estimated from two doses): < 50 µM
